Source: paper PMC4514850, “A Novel TGR5 Activator WB403 Promotes GLP-1 Secretion and Preserves Pancreatic β-Cells in Type 2 Diabetic Mice” (PLoS ONE, 2015)

What was measured:
gallbladders of mice = assay: gallbladder filling in normal mice; format: in vivo; conditions: 200 mg/kg ip, normal mice fasted overnight, gallbladders removed 30 min later, n = 10
Text: Fig 1 WB403 activated TGR5 and promoted active GLP-1 secretion. (A) WB403 stimulated hTGR5 in CRE-luciferase report system at the concentration range of 1–20 μmol/l. (B) WB403 stimulated hTGR5 specific cAMP accumulation at the concentration range of 1–50 μmol/l. n = 3. **p<0.01, ***p<0.001 vs. DMSO (+TGR5) group. (C) The hTGR5 targeted CRE-luciferase activity of WB403 and ZY403. […] (D) Effect of WB403 and ZY403 on gallbladders of mice. Normal mice were fasted overnight and treated with compounds (200 mg/kg) or vehicle (DMSO) by ip injection. Gallbladders (GB) were removed 30 min later and volumes measured then normalized to body weight (B.W.). n = 10. **p<0.01 vs. vehicle group. (E) Structure of WB403 and ZY403. WB403 promoted GLP-1 secretion in NCI-H716 cells (F), primary enterocytes (G), and MIN6 cells (H). n = 3. *p<0.05, **p<0.01, ***p<0.001 vs. vehicle group. (I) WB403 promoted GLP-1 in ICR mice. n = 5. **p<0.01 vs. vehicle group. Values represent mean ± SEM.

ICR mice = assay: GLP-1 secretion in vivo in ICR mice; conditions: oral 50, 100 mg/kg with DPP-4 inhibitor 5 mg/kg; blood 10 min after 2 g/kg glucose; n = 5
Description: Endocrine differentiation was induced by seeding NCI-H716 cells in plates coated with Matrigel (Becton Dickinson). Cells were washed with RPMI-1640 medium without FBS and incubated in the same medium containing indicated compounds at 10 μmol/l. The condition medium was collected after 30 min. GLP-1 secretion in MIN6 or primary enterocytes was conducted similarly. To isolate primary enterocytes, ileum or colon was cut into 2 cm length, rinsed by PBS (pH7.2∼7.4) before dispersed in 10 mmol/l EDTA/PBS (pH7.4) for 15 min at room temperature, followed by pipetting up and down. Enterocytes were collected by filtration through a 70 μm cell strainer. To study the effect of WB403 on GLP-1 secretion in vivo, mice in group of three were fasted overnight and orally received 0, 50, 100 mg/kg of WB403 dispersed in 0.5% CMC with a DPP-4 inhibitor (5 mg/kg). There were 5 animals in each group. 2 g/kg glucose was administrated 30 min later and blood was collected 10 min after glucose challenge.
The GLP-1 (active) ELISA kit was purchased from Millipore, and insulin ELISA kit was from Mercodia. For quantitative determination of cAMP, a competitive enzyme immunoassay kit from R&D system was used. All immunoassays were performed according to manufacturers’ instructions.

[1] = pharmacokinetic test in Sprague-Dawley rats; format: in vivo; conditions: male, plasma, rat
Description: Adult male Sprague-Dawley rats fasted for 12 h were randomized into two groups (n = 5) for intravenous injection (i.v.) or oral administration (p.o.). Blood samples were collected from the orbital plexus at 10, 20, 30, 40, 60, 90, 120, 150, 180, 240, 360 and 480 min after administration. The concentration of WB403 in plasma was determined by an Aligent Technologies 1260 series HPLC system with a DAD detector. The oral bioavailability (F%) was calculated as F (%) = AUC0-∞(p.o.) / AUC0-∞(i.v.) × Dose (i.v.) / Dose (p.o.).

db/db mice = assay: 4-week treatment of db/db mice; format: in vivo
Description: Five-week old male ICR mice and db/db (C57BL BKS cg-M+/+ lepr-/-) mice were purchased from Shanghai SLAC Laboratory Animal Co., Ltd. (Shanghai, China). Mice were housed 4–5 per cage and allowed access to normal chow diet and autoclaved water freely. They were fed at a constant room temperature (25°C) with a 12-h light (7:00 AM)/dark (7:00 PM) cycle. All the mice were monitored at least daily, and no adverse events were observed. In general, the db/db mice show a high food intake at 4-week old and become obese and develop type 2 diabetes at 8-week age. Postprandial 2 h blood glucose was assessed and mice with the similar degree of hyperglycemia and body weight were randomized into different groups in order to get a similar average PBG in each group.
Diabetic mice in group of four were treated by gavage with vehicle (0.5% carboxymethylcellulose, CMC, Sigma), WB403 50, 100 mg/kg or sitagliptin at 100 mg/kg daily for 4 weeks in db/db mice (n = 5 with chow diet), and 8 weeks in HFD/STZ mice (n = 8 with HFD, additional normal mice group with chow diet). During the entire dosing period, body weight, food intake and water intake were monitored three times per week, while FBG and PBG were measured weekly. Overnight fasted mice received an oral glucose challenge at 2 g/kg and postprandial 2 h blood glucose was measured. Animals were treated and assessed in the order of the vehicle, WB403 50, 100 mg/kg and sitagliptin 100 mg/kg group.
Fig 3 Effects of WB403 treatment in db/db mice. (A, B) FBG and PBG measured every week during the 4-week treatment period. (C, D) Serum levels of HbA1c, measured at the end of intervention by Adicon Clinical Laboratories (Shanghai, China) using an immunoturbidimetric assay on Beckman AU680 biochemical analyzer. (E) Average daily food intake per mouse during the treatment period. Data was collected three times per week. (F) Average daily water intake per mouse. (G) Body weight from different groups of mice. (H) Serum levels of insulin were measured at the end of intervention. Values are mean ± SEM (n = 5). *p<0.05, **p<0.01, ***p<0.001 vs. vehicle group.

[2] = iv, i.v. 40 mg/kg, mean ± SEM, n = 5
[3] = po, p.o. 40 mg/kg, mean ± SEM, n = 5
[4] = db/db mice, 50, 100 mg/kg daily by gavage, after one week
[5] = db/db mice, end of 4-week treatment

## CCc1cc(-c2nc(C)c(COCc3ccc(Br)cc3)s2)ccn1 [WB403, 4-(5-((4-bromobenzyloxy)-methyl)-4-methylthiazol-2-yl)-2-ethylpyridine]
Gallbladders of mice
  gallbladder filling: did not
ICR mice
  GLP-1 concentration in serum: significantly increased
[1]; [2]
  AUC(0-inf): 26900 ng·h/mL
  AUC(0-t): 25000 ng·h/mL
  C0: 25700 ± 4600 ng/mL
  half-life: 2.77 ± 0.43 h
[1]; oral, p.o. 40 mg/kg vs i.v. 40 mg/kg, from AUC0-∞
  bioavailability: 12%
[1]; [3]
  AUC(0-inf): 3220 ng·h/mL
  AUC(0-t): 2280 ng·h/mL
  Cmax: 980 ± 160 ng/mL
  Tmax: 1.4 h
  half-life: 2.94 ± 1.08 h
db/db mice; db/db mice, 4-week treatment
  body weight: did not vary significantly
  food intake: did not vary significantly
  water intake: decreased
db/db mice; [4]
  FBG vs vehicle: significantly decreased
  PBG vs vehicle: significantly decreased
db/db mice; [5]
  HbA1c levels vs vehicle: significantly lower
  serum insulin levels: higher insulin levels
